Where two headings read alike, the source gives them in different places.
Assays:
[1] = system: Enterobacter aerogenes (EAE) isolates; assay: MIC of compounds alone and combined with antibacterials, broth microdilution (CLSI); type: cell-based
Outline: (§1)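 Log-phase bacteria at a final 5·10^5 CFU/mL in cation-adjusted Mueller-Hinton broth were incubated 16-20 h at 35° C in ambient air with compound alone or with an antibacterial. MIC was the lowest concentration preventing visible growth; combination MIC of the antibacterial was read at each compound concentration.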

[2] = system: Enterobacter cloacae (ECL) isolates; assay: as above; type: cell-based; conditions: for MIC: Enterobacter cloacae
Outline: as §1

CC1(C)S[C@@H]2[C@H](NC(=O)[C@H](N)c3ccc(O)cc3)C(=O)N2[C@H]1C(=O)O [AMX, Amoxicillin]
> 1020 µg/mL: MIC ([1]; Klebsiella aerogenes, strain EAE 49469 (AmpC), ATB alone, read-out: MIC) | MIC ([2]; strain ECL P99 (AmpC), ATB alone, read-out: MIC)
<=1 μg/mL: MIC ATB in combination ([1]; EAE UFR201, AF1 @ 4 μg/mL)
64 µg/mL: MIC ATB in combination ([1]; EAE UFR199, AF1 @ 4 μg/mL) | MIC ATB in combination ([1]; EAE UFR202, AF1 @ 4 μg/mL) | MIC ATB in combination ([2]; ECL UFR70, AF1 @ 4 μg/mL)
> 128 µg/mL: MIC ([1]; Klebsiella aerogenes) | MIC ([2]; ATB alone, strain ECL UFR197 (TEM-1, CTX-M-15, OXA-1, OXA-48)) | MIC ([2]; ATB alone, strain ECL UFR198 (TEM-1, SHV-12, CTX-M-15, DHA-1, OXA-1, OXA-48)) | MIC ([2]; ATB combined with CLA @ 4 μg/ml, strain ECL UFR197 (TEM-1, CTX-M-15, OXA-1, OXA-48)) | MIC ([2]; ATB combined with CLA @ 4 μg/ml, strain ECL UFR198 (TEM-1, SHV-12, CTX-M-15, DHA-1, OXA-1, OXA-48)) | MIC ([2]; strain ECL 2185D (OXA-163), CLA @ 4 μg/ml+ ATB) | MIC ([2]; strain ECL 190310 (AmpC), CLA @ 4 μg/ml+ ATB) | MIC ([2]; strain ECL 190408 (TEM-1, CTX-M-15, OXA-1), CLA @ 4 μg/ml+ ATB) | MIC ([2]; strain ECL 200138 (AmpC), CLA @ 4 μg/ml+ ATB) | MIC ([2]; strain ECL 200322 (TEM-1, CTX-M-15, OXA-1), CLA @ 4 μg/ml+ ATB) | MIC ([2]; strain ECL 260033 (AmpC), CLA @ 4 μg/ml+ ATB) | MIC ([2]; strain ECL 260253 (TEM-1, KPC-3), CLA @ 4 μg/ml+ ATB) | MIC ([2]; strain ECL 260323 (AmpC), CLA @ 4 μg/ml+ ATB) | MIC ([2]; strain ECL 260508 (TEM-1, CTX-M-15), CLA @ 4 μg/ml+ ATB) | MIC ([2]; strain ECL NEM146383 (AmpC), CLA @ 4 μg/ml+ ATB) | MIC ([2]; strain ECL UFR12 (CTX-M-9, OXA-48), CLA @ 4 μg/ml+ ATB) | MIC ([2]; strain ECL UFR13 (TEM-1, SHV-12, CTX-M-9, OXA-48), CLA @ 4 μg/ml+ ATB) | MIC ([2]; strain ECL UFR14 (TEM-1, SHV-12, CTX-M-15, DHA-1, OXA-1, OXA-48), CLA @ 4 μg/ml+ ATB) | MIC ([2]; strain ECL UFR60 (TEM-1, CTX-M-15, KPC-2), CLA @ 4 μg/ml+ ATB) | MIC ([2]; strain ECL UFR70 (TEM-1, CTX-M-15, CMY-2, OXA-1, Porin loss), CLA @ 4 μg/ml+ ATB) | MIC ([2]; strain ECL UFR84 (TEM-1, AmpC, OXA-1), CLA @ 4 μg/ml+ ATB) | MIC ([2]; strain ECL UFR85 (TEM-1, CTX-M-15, AmpC), CLA @ 4 μg/ml+ ATB) | MIC ([2]; strain ECL UFR194 (OXA-48), ATB alone) | MIC ([2]; strain ECL UFR194 (OXA-48), CLA @ 4 μg/ml+ ATB) | MIC ([2]; strain ECL UFR195 (TEM-1, CTX-M-15, OXA-1, OXA-48), ATB alone)
256 µg/mL: MIC ATB in combination ([2]; ECL 200138, AF1 @ 4 μg/mL) | MIC ATB in combination ([2]; ECL 260033, AF1 @ 4 μg/mL) | MIC ATB in combination ([2]; ECL 260253, AF1 @ 4 μg/mL) | MIC ATB in combination ([2]; ECL 260323, AF1 @ 4 μg/mL) | MIC ATB in combination ([2]; ECL UFR13, AF1 @ 4 μg/mL) | MIC ATB in combination ([2]; ECL UFR85, AF1 @ 4 μg/mL) | MIC ATB in combination ([2]; ECL UFR194, AF1 @ 4 μg/mL) | MIC ATB in combination ([2]; ECL UFR200, AF1 @ 4 μg/mL)
16 µg/mL: MIC ([1]; Klebsiella aerogenes, strain EAE UFR201 (TEM-1, SHV-12, CTX-M-15), CLA @ 4 μg/ml+ ATB, read-out: MIC)
32 µg/mL: MIC ATB in combination ([1]; EAE UFR213, AF1 @ 4 μg/mL)
> 512 µg/mL: MIC ([2]; strain ECL P99 (AmpC), CLA @ 4 μg/ml+ ATB)
8 µg/mL: MIC ATB in combination ([2]; ECL 190408, AF1 @ 4 μg/mL)
128 µg/mL: MIC ATB in combination [1] | MIC ATB in combination [2]
> 256 µg/mL: MIC ([2]; strain ECL 2185D (OXA-163), ATB alone) | MIC ([2]; strain ECL 190310 (AmpC), ATB alone) | MIC ([2]; strain ECL 190408 (TEM-1, CTX-M-15, OXA-1), ATB alone) | MIC ([2]; strain ECL 200138 (AmpC), ATB alone) | MIC ([2]; strain ECL 200322 (TEM-1, CTX-M-15, OXA-1), ATB alone) | MIC ([2]; strain ECL 260033 (AmpC), ATB alone) | MIC ([2]; strain ECL 260253 (TEM-1, KPC-3), ATB alone) | MIC ([2]; strain ECL 260323 (AmpC), ATB alone) | MIC ([2]; strain ECL 260508 (TEM-1, CTX-M-15), ATB alone) | MIC ([2]; strain ECL NEM146383 (AmpC), ATB alone) | MIC ([2]; strain ECL UFR12 (CTX-M-9, OXA-48), ATB alone) | MIC ([2]; strain ECL UFR13 (TEM-1, SHV-12, CTX-M-9, OXA-48), ATB alone) | MIC ([2]; strain ECL UFR14 (TEM-1, SHV-12, CTX-M-15, DHA-1, OXA-1, OXA-48), ATB alone) | MIC ([2]; strain ECL UFR60 (TEM-1, CTX-M-15, KPC-2), ATB alone) | MIC ([2]; strain ECL UFR70 (TEM-1, CTX-M-15, CMY-2, OXA-1, Porin loss), ATB alone) | MIC ([2]; strain ECL UFR84 (TEM-1, AmpC, OXA-1), ATB alone) | MIC ([2]; strain ECL UFR85 (TEM-1, CTX-M-15, AmpC), ATB alone)
>256 µg/mL: MIC [1]

Source: patent US20200017496A1 (priority 2017, published 2020)
